Laboratory results from US20200352947A1, “USE OF SEROTONERGIC DRUGS TO TREAT VIRUS-INDUCED THROMBOCYTOPENIA” (NATIONAL UNIVERSITY OF SINGAPORE, priority 2017, published 2020).

Tests used:
DENV2-infected mice = test: Platelet counts (thrombocytopenia) in DENV2-infected WT mice; assay type: in vivo; settings: 10^6 pfu DENV2 IP, 24 hours post-infection, n=5
Method: Platelet counts of DENV2 infected mice. Mice were infected via intraperitoneal route (IP) with 10^6 plaque forming units (pfu) and were given either vehicle (1% DMSO) or ketanserin 8 mg/kg IP. Blood was taken via cheek bleed 24 hours post-infection and platelet counts were measured using an automated hematology analyzer. DENV2 infection induces thrombocytopenia, but ketanserin treatment is able to prevent thrombocytopenia (n=5). Mean values are presented and error bars represent the SEM. P values were determined by Student's unpaired t test; ***P<0.001, ****P<0.0001.
Platelet counts of DENV2 infected mice. Mice were infected IP with 10^6 pfu of DENV2 and were given either vehicle, the 5HT1A antagonist WAY-100135, or either of the 5HT2A antagonists, ketanserin and sarpogrelate. Blood was taken via cheek bleed 24 hours post-infection and platelet counts were measured using an automated hematology analyzer. DENV2 infection induced thrombocytopenia that was able to be prevented through administration of serotonin receptor antagonists (n=5). Mean values are presented and error bars represent the SEM. P values were determined by one-way ANOVA; ***p<0.001, ****P<0.0001.
WT mice were infected via intraperitoneal route (IP) with 10^6 plaque forming units (pfu) of DENV2 and were given either vehicle (1% DMSO) or ketanserin (8 mg/kg) IP. Blood was taken via cheek bleed 24 hours post-infection and platelet counts were measured using an automated hematology analyzer.
One limitation of the experimental protocol in Examples 10 and 11 is that the vehicle used to deliver ketanserin in mice, DMSO, can itself interfere with platelet aggregation [Rosenblum, W. I. & El-Sabban. F. Stroke 13, 35-39 (1982)]. This difference can be observed by comparing the severity of thrombocytopenia in dengue-infected mice between FIGS. 1 and 10. Accordingly, newer serotonin receptor antagonists that are more soluble in saline were tested, to determine whether a similar effect is seen even without the confounding effects of DMSO. Mice were infected IP with 10^6 pfu of DENV2 and were given either vehicle, the 5HT1A antagonist WAY-100135 (3 mg/kg), or one of the 5HT2A antagonists ketanserin (8 mg/kg) or sarpogrelate (3 mg/kg). Blood was taken via cheek bleed 24 hours post-infection and platelet counts were measured using an automated hematology analyzer.

DENV2 = test: DENV viral load by qRT-PCR in WT mice; assay type: in vivo
Method: (A) WT mice were treated with vehicle or ketanserin (8 mg/kg) prior to subcutaneous footpad injection with 2×10^5 pfu of DENV or PBS. At 72 h post-infection, popliteal lymph nodes were isolated for viral quantification by qRT-PCR. […] (B-C) WT mice were infected with DENV2 (1×10^6 pfu, i.p.) and treated daily with either 8 mg/kg of ketanserin or vehicle. […] (C) At 1 day post-infection, the spleen was harvested and DENV2 was quantified by qRT-PCR.
Since a concern with inhibition of host factors would be the effect on viral replication, the levels of viremia following DENV infection were measured. WT mice were treated with either ketanserin or vehicle prior to a subcutaneous footpad injection. The draining lymph nodes were then harvested to determine if targeting 5HT2A receptors had any influence on viral load. […] Subsequently it was determined whether targeting serotonin would have an effect on viral load in systemic infection. WT mice were treated with either ketanserin or vehicle following DENV systemic infection via intraperitoneal injection. Serum was isolated at days 1 and 3 post-infection and viremia quantified. […] The second model of severe DENV infection, the IFN-α,β, γ-R^−/− (IFNR-KO) mice, were subsequently infected and treated with either ketanserin or vehicle. These mice are known to have higher levels of viremia than WT mice.

O=C(c1ccc(F)cc1)C1CCN(CCn2c(=O)[nH]c3ccccc3c2=O)CC1 [ketanserin, 3-[2-[4-(4-fluorobenzoyl)piperidin-1-yl]ethyl]-1H-quinazoline-2,4-dione]
platelet counts (DENV2-induced thrombocytopenia) (DENV2-infected mice; WT mice, ketanserin 8 mg/kg IP, vehicle 1% DMSO): did not show significantly reduced platelets compared to control
platelet counts (DENV2-induced thrombocytopenia) (DENV2-infected mice; mice, WAY-100135 3 mg/kg, ketanserin 8 mg/kg or sarpogrelate 3 mg/kg): prevented
viral load in the spleen (DENV2; DENV2 1×10^6 pfu i.p., ketanserin 8 mg/kg daily, 1 day post-infection): did not affect viral load in the spleen
serum viremia (DENV genome copy numbers) (DENV2; DENV2 1×10^6 pfu i.p., ketanserin 8 mg/kg daily, days 1 and 3 post-infection, n=5): no significant difference in serum DENV genome copy numbers at both time points
viral load in the draining (popliteal) lymph node (DENV2; ketanserin 8 mg/kg prior to subcutaneous footpad injection of 2×10^5 pfu DENV, 72 h post-infection): did not affect viral load in the draining lymph node
